These results are taken from ChEMBL document CHEMBL6103608, “Emerging RAS Inhibitors: Heterocyclic and Spirocyclic Compounds in Cancer Therapeutics” (ACS Med Chem Lett, 2025).

The assay can be described thus: Inhibition of NRAS G12D mutant (unknown origin) expressed in human THP-1 cells assessed as reduction in ERK phosphorylation incubated for 2 hrs by AlphaLISA SureFire Ultra assay. It counts as cell-based. The conditions noted are these: THP-1, 2 h.

Molecules are shown by their SMILES.

By IC50 is commonly meant the concentration at which inhibition is half-maximal. Regarding `C[C@@H]1OC2=NC(c3cc(N)cc(F)c3OC(F)(F)F)=C(F)C3C(Cl)=C(CCN(C)C)N=C(C23)N2C[C@H]3CC[C@H](N3)[C@@H]12` (stereo partly specified), the IC50 was 0.803 nM.
